We go through eight molecules from patent publication US7144902B1, “Prodrugs of thrombin inhibitors” (Abbott GmbH & Co. KG, priority 1999, dated 2006).

Each structure is given as a SMILES string.

For one data set, the system named is human colon adenocarcinoma cell lines HT-29, Caco-2 and T84; IEC-18 cell line. As to the kind of experiment: Transport experiments through intestinal cell layers on Transwell polycarbonate membranes (apical to basolateral). The following applies: transport rate from apical side through the cell layer to basolateral side, e.g. apical (pH 6.0) to basolateral (pH 8.0), e.g. 24 h; HPLC; divided into categories. More on the design: key: +++: very good transport; ++: good transport; +: moderate transport. The class given is in vitro ADME. An excerpt:
Several in vitro models are available for studying intestinal absorption. Thus, the human colon adenocarcinoma cell lines HT-29, Caco-2 and T84 are routinely employed to investigate various intestinal transport processes (Madara et al., Am. J. Physiol. 1988, 254: G416–G423; K. L. Audus et al., Pharm. Res. 1990, 7, 435–451). The IEC-18 cell line has also shown itself to be a suitable model for investigating the permeability of hydrophilic substances through the intestinal membrane (Ma et al., J. Lab. Clin. Med. 1992 120, 329–41; Duizer et al., J. Contr. Rel. 1997 49, 39–49).
For the transport experiments (for materials and methods, see R. T. Borchardt, P. L. Smith, G. Wilson, Models for Assessing Drug Absorption and Metabolism, 1st edition, Plenum Press New York and London, 1996, chapter 2), the cells are cultivated on Transwell polycarbonate membranes for 17–24 days. The test chamber is arranged so that the membrane divides the apical from the basolateral compartment. Transport of the test substances from the apical side through the cell layer onto the basolateral side can be measured as a function of the pH gradient, for example apical (pH 6.0)→basolateral (pH 8.0).
After incubation of the cells with the test substance, samples are taken from the apical and basolateral sides after a defined time interval (e.g. 24 h). The content of test substance employed and any metabolites in each of the two compartments is determined by HPLC (comparison of retention times) and HPLC-MS (elucidation of metabolites) analyses. The transport rate is calculated.
It is possible on the basis of the results of these tests to divide test substances into the following categories: […]
Turning to `CCOC(=O)CN[C@@H](C(=O)N1CC=CC1C(=O)NCc1ccc(C(N)=NOCc2ccc(C)cc2)s1)C1CCCCC1.Cl` (some centres unmarked) [Example 11, N-(Ethoxycarbonylmethyl)-(D)-cyclohexylglycyl-3.4-dehydroproline 2-(N-(p-methylbenzyloxy)amidino)-5-thienylmethylamide hydrochloride], the Transport result is recorded as “+++”.
Same read-out and setting: then `CC(C)COC(=O)NC(=N)c1ccc(CNC(=O)C2C=CCN2C(=O)[C@H](NCC(=O)O)C2CCCCC2)s1.Cl` (some centres unmarked) [Example 2, N-(Hydroxycarbonylmethyl)-(D)-cyclohexylglycyl-3,4-dehydroproline 2-(N-isobutyloxycarbonyl)amidino-5-thienylmethylamide hydrochloride], with “+”; and `Cc1ccc(CON=C(N)c2ccc(CNC(=O)C3C=CCN3C(=O)[C@H](NCC(=O)O)C3CCCCC3)s2)cc1.Cl` (some centres unmarked) [Example 10, N-(Hydroxycarbonylmethyl)-(D)-cyclohexylglycyl-3.4-dehydroproline 2-(N-(p-methylbenzyloxy)amidino)-5-thienylmethylamide hydrochloride], with “+”; and `CC(C)CCOC(=O)CN[C@H](CC1CCCCC1)C(=O)N1CC=CC1C(=O)NCc1nc(C(N)=NO)cs1.Cl` (some centres unmarked) [Example 33, N-(3,3-Dimethylpropyloxycarbonylmethyl)-(D)-cyclohexylalanyl-3,4-dehydroproline 4-hydroxyamidino-2-thiazolylmethylamide hydrochloride], with “+++”.
On the same count and under the same terms, as for `CCCCCCCCCCCCCCCCOC(=O)CN[C@H](CC1CCCCC1)C(=O)N1CC=CC1C(=O)NCc1nc(C(N)=NO)cs1.Cl` (some centres unmarked) [Example 25, N-(Hexadecyloxycarbonylmethyl)-(D)-cyclohexylalanyl-3,4-dehydroproline 4-hydroxyamidino-2-thiazolylmethylamide hydrochloride], the entry is “++”.
With `CCCCCCOC(=O)CN[C@H](CC1CCCCC1)C(=O)N1CC=CC1C(=O)NCc1nc(C(N)=NO)cs1.Cl` (some centres unmarked) [Example 29, N-(Hexyloxycarbonylmethyl)-(D)-cyclohexylalanyl-3,4-dehydroproline 4-hydroxyamidino-2-thiazolylmethylamide hydrochloride], the Transport result is “++”.
On the same count and under the same terms, as for `CCCCCCCCCCCCCCCCOC(=O)CN[C@H](CC1CCCCC1)C(=O)N1CC=CC1C(=O)NCc1nc(C(=N)N)cs1.Cl.Cl` (some centres unmarked) [Example 21, N-(Hexadecyloxycarbonylmethyl)-(D)-cyclohexylalanyl-3,4-dehydroproline 4-amidino-2-thiazolylmethylamide dihydrochloride], the entry is “++”.

Test system in the next data set: not listed separately
As to the kind of experiment: Stability of aqueous solutions of the product. The class given is physicochemical. Particulars: neutral versus acidic aqueous solutions; acylated amidine function is hydrolyzed in acid. The procedure:
• The crude product obtained in g), t-BuO2C—CH2-(Boc)-(D)-Chg-Pyr-NH—CH -5-(2=NH(NH—COOCH3))-thioph (1.7 g, max. 2.3 mmol), was dissolved in a mixture of 45 ml of methylene chloride, 20 ml of dioxane and 45 ml of 4N hydrochloric acid in dioxane and stirred overnight with exclusion of moisture. The reaction solution was concentrated in vacuo, and the residue was codistilled with ether several times and subsequently extracted by stirring with ether. After drying in vacuo, 1.3 g of the title compound were obtained as a white solid product. […] FAB-MS (M+H^+): 506
Regarding `COC(=O)NC(=N)c1ccc(CNC(=O)C2C=CCN2C(=O)C(NCC(=O)O)C2CCCCC2)s1.Cl` (centres unmarked) [Example 1, N-(Hydroxycarbonylmethyl)-(D)-cyclohexylglycyl-3,4-dehydroproline 2-(N-methoxycarbonyl)amidino-5-thienylmethylamide hydrochloride], the “stability of aqueous solutions” value is “distinctly more stable than acidic solutions”.
